# According to patent EP0249394B1 (THE UNITED STATES OF AMERICA as represented by the …, priority 1986, dated 1993):
# Tested on: T4 viral receptors
# Assay: General statements: binding to T4 viral receptors / inhibition of gp 120 binding to brain membranes
# Method: Radiolabeling of gp 120, Preparation of Brain Membranes, Binding and Crosslinking of gp120 to Receptor, and Immunoprecipitation of T4 Antigen. HTLV-IIIb isolate of HIV was propaged in H9 cells, and the gp120 was isolated by immunoaffinity chromatography and preparative NaDodSO₄/PAGE. Purified gp120 was labeled with ¹²⁵I by the chloramine-T method.
# Fresh human, monkey, and rat hippocampus were quickly homogenized (Polytron, Brinkmann Instruments) in 100 vol of ice-cold 50 mM Hepes (pH 7.4). The membranes collected by centrifugation (15,000 x g) were washed in the original buffer volume and were used fresh or stored at -70°C. Before use, brain membranes and highly purified T cells (ref. 16; gift of Larry Wahl) were preincubated for 15-30 min in phosphate-buffered saline (PBS). Membranes derived from 2mg (initial wet weight) of brain (≈100µg of protein) were incubated with 28,000 cpm of ¹²⁵I-gp120 for 1 hr at 37°C in 200 µl (final volume) of 50 mM Hepes containing 0.1% bovine serum albumin and the peptidase inhibitors bacitracin (0.005%), aprotinin (0.005%), leupeptin (0.001%), and chymostatin (0.001%). Incubations were rapidly vacuum-filtered and counted to determine the receptor-bound material.
substance,measurement,value
CYS-THR-THR-ASN-TYR-THR-CYS (CTTNYTC; printed: CYS-THR-THR-ASN-TYR-THR-CYS) [seven amino acid peptide],activity (test not specified),active
